Consider two compounds from US8119661B2, “Piperidine derivatives and their use as muscarinic receptor modulators” (AstraZeneca AB, priority 2007, dated 2012).

Assay [1] has as its target T1, hM1 (human Muscarinic receptor subtype 1) (Homo sapiens, UniProt P11229).
T1 construct: expressed in transfected cells; host or cells: CHO cells (Chinese hamster ovary cells, ATCC)
T1 sequence (P11229 1-460): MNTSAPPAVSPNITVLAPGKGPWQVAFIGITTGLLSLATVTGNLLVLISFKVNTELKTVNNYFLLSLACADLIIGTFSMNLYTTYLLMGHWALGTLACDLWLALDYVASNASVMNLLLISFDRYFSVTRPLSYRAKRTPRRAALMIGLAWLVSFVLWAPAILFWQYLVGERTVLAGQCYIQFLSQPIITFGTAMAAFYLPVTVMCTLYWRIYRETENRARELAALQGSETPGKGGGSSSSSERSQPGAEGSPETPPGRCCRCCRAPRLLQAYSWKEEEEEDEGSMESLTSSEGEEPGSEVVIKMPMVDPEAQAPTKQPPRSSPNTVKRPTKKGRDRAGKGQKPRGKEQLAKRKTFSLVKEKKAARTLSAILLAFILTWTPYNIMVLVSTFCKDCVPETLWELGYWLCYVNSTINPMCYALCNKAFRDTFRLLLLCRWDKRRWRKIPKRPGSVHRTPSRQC
The assay is described as follows: Human M1 calcium mobilization FLIPR assay. It is filed as cell-based. The note with it: CHO cells expressing hM1, intracellular Ca2+ release. How it is done: The compound activity in the present invention (EC50 or IC50) is measured using a 384 plate-based imaging assay that monitors drug induced intracellular Ca^2+ release in whole cells. Activation of hM1 (human Muscarinic receptor subtype 1, gene bank access NM_000738), rM1 (rat Muscarinic receptor subtype 1, gene bank access NM_080773), hM3 (human Muscarinic receptor subtype 3, gene bank access NM_000740NM_000740) and hM5 (human Muscarinic receptor subtype 5, gene bank access NM_0121258), receptors expressed in CHO cells (Chinese hamster ovary cells, ATCC) is quantified in a Molecular Devices FLIPR II™ instrument as an increase in fluorescent signal. Inhibition of hM3 and hM5 by compounds is determined by the decrease in fluorescent signal in response to 2 nM acetylcholine activation.
Prior to experiment, the cell culture medium is removed from the plates by inversion. […] Plates are incubated at 37° C. for 60 minutes prior to start the experiment. The incubation is terminated by washing the cells four times in assay buffer, leaving a residual 25 μl buffer per well. Cell plates are then transferred to the FLIPR, ready for compound additions.
The day of experiment, acetylcholine and compounds are diluted in assay buffer in three-fold concentration range (10 points serial dilution) for addition by FLIPR instrument. For all calcium assays, a baseline reading is taken for 10 seconds followed by the addition of 12.5 μl of compounds, resulting in a total well volume of 37.5 μl. Data is collected every second for 60 pictures and then every 6 seconds for 20 pictures prior to the addition of agonist. For hM3 and hM5, before agonist addition, a second baseline reading is taken for 10 seconds followed by the addition of 12.5 μl of agonist or buffer, producing a final volume of 50 μl. After agonist stimulation, the FLIPR continues to collect data every second for 60 pictures and then every 6 seconds for 20 pictures. The fluorescence emission is read using filter 1 (emission 510-570 nm) by the FLIPR on board CCD camera.
Calcium mobilization output data are calculated as the maximal relative fluorescence unit (RFU) minus the minimal value for both compound and agonist reading frame (except for hM1 and rM1 using only the maximal RFU). Data are analyzed using sigmoidal fits of a non-linear curve-fitting program (XLfit version 4.2.2 Excel add-in version 4.2.2 build 18 math 1Q version 2.1.2 build 18). All pEC50 and pIC50 values are reported as arithmetic means±standard error of mean of ‘n’ independent experiments.
For orientation: Calcium flux is commonly read through the fluorescence of an indicator in the cells.

The test system of assay [2] is SNL rats (heat hyperalgesia). Briefly: Rat SNL heat hyperalgesia assay. Format: in vivo. Conditions: sc, male Sprague Dawley SNL rats, paw withdrawal latency, morphine s.c. 30 min before testing, example 2 per os 60 min before testing, combination ratio example 2:morphine 1:1.56.
Method: Rats undergo spinal nerve ligation surgery as described in Kim and Chung (1992) (reference 1). Briefly, rats are anesthetized with isoflurane, the left L5 and L6 are isolated and tightly ligated with 4-0 silk thread. The wound is closed by suturing and applying tissue adhesive. Compound testing is performed at day 9 to day 36 post-surgery.
For behavioral testing, the animals are acclimatized to the test room environment for a minimum of 30 min. In order to assess the degree of hyperalgesia, the animals are placed on a glass surface (maintained at 30° C.), and a heat-source is focused onto the plantar surface of the left paw. The time from the initiation of the heat until the animal withdraws the paw is recorded. Each animal is tested twice (with an interval of 10 min between the two tests). A decrease in Paw Withdrawal Latency (PWL, average of the two tests) relative to naïve animals indicates a hyperalgesic state. The rats with a PWL of at least 2 seconds less than average PWL of Naïve group are selected for compound testing. […]
In order to assess the degree of heat hyperalgesia, the rats were individually placed in Plexiglas boxes on the glass surface (maintained at 30° C.) of a paw thermal stimulator system (Model 390, series 8, IITC Life Science, Woodland Hills, USA) and allowed to acclimate for 30 min. […] Paw withdrawal latencies (PWLs) were calculated as the mean of the two values.

As a reminder, the EC50 is the concentration that produces a half-maximal response. `CC#CCOC(=O)N1CCC(C)(N2CCC(N3C(=O)N[C@H]4CCCC[C@@H]43)CC2)C1` (single isomer, unassigned) [Example 20]: in assay [1], the EC50 was determined as 257 nM.

As usually defined, the ED50 is the dose at which the effect has come halfway, by size or by number of responders. For `CN1CC[C@]23c4c5ccc(O)c4O[C@H]2[C@@H](O)C=C[C@H]3[C@H]1C5` [Morphine, reference compound], the 50% effective dose (ED50) in assay [2] was 3.8 µmol/kg.
